# PubChem BioAssay AID651717 (Broad Institute, 2012)
# Test system: mESC Bmi1-luciferase reporter, firefly/renilla ratio, 24 h
# Experiment: compounds raising Bmi1 reporter signal – mouse embryonic stem cells, luciferase, cherry-pick, esBAF inhibitor project, dose response (AID 651717);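 note: luciferase knocked into Bmi1 locus with EF-1a renilla as cell number control; rising ratio signals esBAF inhibition which derepresses Bmi1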
row,Structure (SMILES),AC40 [µM]
1,O=C(c1c(F)cccc1F)N1CCCC(c2nc(-c3cccs3)no2)C1 (stereo unspecified),11.8
2,COc1ccc(CNc2nc(NCc3ccc(OC)cc3)n(C(=O)c3ccccc3[N+](=O)[O-])n2)cc1,18.8
3,COc1ccc(Cc2c(-c3ccc(F)cc3)nc3ccc(Br)cn23)c(C)c1,3.51
4,O=C(c1noc2c1CCCC2)N1CCc2ccccc2C1,2.99
5,COc1ccccc1C(=O)Nc1sc2c(c1C#N)CCC2,2.15
6,Cn1c(=NC(=O)C2CC2)sc2cc(F)cc(F)c21,16.6
7,Cc1cc(N2CCCCC2)nc2ccc(NC(=O)CCC(=O)NCCC(C)C)cc12,16.6
8,Clc1ccc(OCc2nc(-c3ccncc3)no2)cc1,10.8
9,c1ccc2c(c1)Nc1cc3ccccc3cc1O2,4.66
10,COc1ccc([C@@H](C)NC(=O)c2ccc3oc(C(C)C)nc3c2)cc1,9.81
11,Cc1ccc(S(=O)(=O)N2CCN(C(=O)c3ccc4ccccc4n3)CC2)c(C)c1,6.53
12,Cc1cc(C)c2nc(N3CCCC(C(=O)NC4CCCC4)C3)sc2c1 (stereo unspecified),9.66
13,O=C(c1ccncc1)N(c1ccc(N2CCOCC2)cc1)C(c1ccccc1)c1nc2ccccc2[nH]1 (stereo unspecified),1.01
14,O=C(Cn1cc(C(F)(F)F)cc(Cl)c1=O)NCc1ccc(F)cc1,7.38
15,COc1cc(C=O)c(Br)cc1OCc1ccc(C)cc1,4.67
16,Cc1ccc(-c2ccc(CCC(=O)O)n2-c2cccc(O)c2)cc1,10.1
17,Cc1ccc(OCc2cc(C(=O)N3CCC(c4ccccc4Cl)C3)no2)cc1C (stereo unspecified),7.33
18,CC/C(=N\NC(=O)c1cc(C2CC2)[nH]n1)c1ccccc1,4.25
19,CC(C)C(=O)N1CCN(c2nc3ccc(Cl)cc3s2)CC1,3.33
20,O=C(NCCc1ccc(F)cc1)c1ccc2c(=O)n3c(nc2c1)CCC3,5.89
21,CC1(C)Cc2c(c(N3CCCC3)nc3sc(C(=O)Nc4ccccc4)c(N)c23)CO1,6.24
22,Cc1ccnc(NC(=O)c2ccc(OCc3c(C)noc3C)cc2)c1,3.44
23,Cc1cccc(Nc2nc(-c3sc(C)nc3C)cs2)c1,2.71
24,Cc1ccc(N(Cc2ccccc2)C(=O)c2cccc(S(=O)(=O)N3CC(C)OC(C)C3)c2)cc1 (stereo unspecified),29.6
25,COc1ccc(Cc2c(-c3ccccc3)nc3ccc(Br)cn23)c(C)c1,8.9
26,O=C(Nc1ccc(SC(F)F)cc1)C12CCC(CC1)C2,5.66
